Literature values, collected in US6376242B1, “Methods and compositions for treating platelet-related disorders using MPL pathway inhibitory agents” (Emory University, priority 1999, dated 2002).

System: megakaryocyte cell line
Conditions: in vitro

N#C/C(=C/c1ccc(O)c(O)c1)C(=O)NCc1ccccc1 [AG-490]
inhibition of proliferation of a megakaryocyte cell line: inhibit proliferation of a megakaryocyte cell line in vitro
